Reference: patent US7371780B2, “Use of calphostin C to treat drug-resistant tumor cells” (priority 2003, dated 2008)

Columns and labels:
MCF-7 cells [1] = experiment: Cytoplasmic shrinkage by hematoxylin/eosin staining, MCF-7; type: cell-based, human
Method: For staining with hematoxylin and eosin, cells were grown in a six-well culture plate with each well containing a Snowcoat X-Tra™ microscope slide (Surgipath Laboratories, MB) immersed in 3 ml of H21 medium. When the cells reached 50% confluence, they were treated with 0-300 nM calphostin C, followed by a 2 hour exposure of the cultures to fluorescent light as described above. After light activation, the cells were placed in a 37° C. humidified incubator with 5% CO2 and incubated for an additional 22 hours. The cells were then stained with hematoxylin and eosin using a previously described procedure. Briefly, the media was removed from cell cultures and the cells that remained adhered to the slides were washed with PBS, fixed in formalin:acetone (1:2) for 2 min, and allowed to air dry for 10 min. After washing with distilled water, 250 μl of hematoxylin solution (BDH Chemicals, Toronto, ON) was placed on each slide and allowed to incubate with the cells for 5 min. The slides were then washed with distilled water, Scott's tap water (20 g MgSO4.7H2O, 1.5 g NaHCO3 in 1 L H2O), and a final wash with distilled water. The cells on the slides were then stained for 5 min in 250 μl of eosin solution (100 ml of 1% eosin, 10 ml of 1% phyloxine, 4 ml of glacial acetic acid, and 780 ml of 95% ethanol). The cells were then dehydrated by washing three times in 95% ethanol and twice in 100% ethanol. The small slide was then mounted on a standard microscope glass slide, and 10 randomly selected fields were viewed at 100× magnification and photographed. For each concentration of calphostin C, the total number of dead cells in each field was ascertained and expressed relative to the total number of cells in the field.

MCF-7 cells [2] = experiment: Microscopic cell morphology (bright field, AO/EB, PI), MCF-7; type: cell-based, human; conditions: 50 nM light-activated calphostin C
Method: For microscopic observation, cells were seeded onto standard glass coverslips in 10 cm tissue culture plates with 10 ml of H21 medium and grown for 2 days until 40-50% confluence was obtained. After treatment with paclitaxel, doxorubicin or calphostin C, the cells on the glass coverslips were washed twice with PBS (2.7 mM KCl, 1.0 mM KH2PO4, 137 mM NaCl, 10 mM Na2HPO4, pH 7.4) and stained with acridine orange/ethidium bromide (each at 4 μg/ml in PBS) for 10 min at 37° C.. The coverslips were then washed three times in PBS and mounted onto standard glass slides for morphological evaluation. For propidium iodide (PI) staining, the cells on coverslips were washed twice with PBS and fixed in methanol (cooled to −20° C.) for 20 min. Thirty μl of propidium iodide (PI) staining solution (100 μg/ml PI, 0.1% sodium citrate, 100 μg/ml RNase A and 0.3% Nonidet P-40) were then applied to the coverslips for 5 min. […] The cells were then examined using a Zeiss Axiovert 100 inverted fluorescence microscope. […] For each sample, the number of dead cells was determined by visualization after ethidium bromide staining, whereby only dead cells which have lost membrane integrity allow entry of cell-impermeable ethidium bromide into cells to complex with DNA and induce bright red fluorescence. […] The images were recorded and overlayed using Northern Eclipse software (Empix Imaging Inc., Mississauga, ON).

MCF-7 cells [3] = experiment: Flow cytometric sub-G1 DNA content, MCF-7; type: cell-based, human; conditions: 100 nM calphostin C, 2 h light
Method: For flow cytometric analysis, cells at about 50% to 60% confluence were released from their flasks by trypsin treatment and washed with PBS. After centrifugation at 1000 rpm for 5 min, cells were then fixed by resuspension in 75% ethanol for 2 hours, collected by centrifugation, and resuspended in PI staining solution (see above) for 1 h. For each sample, approximately 2×10^4 cells were analyzed using a Beckman Coulter Epics® Elite flow cytometer. Fluorescence intensity upon stimulation with an argon-ion laser at 488 nm was measured using the PMT4 channel (625DL filter) and plotted against cell number. The percentage of cells with a sub-G1 DNA content was determined by the flow cytometer, adjusting the gates such that only cells with a fluorescence lower than the peak for untreated cells in G1 are counted (see FIG. 4).

MCF-7TAX cells = experiment: Drug uptake, MCF-7TAX; type: cell-based, human
Method: FIG. 5 illustrates the effect of calphostin C (Cal-C) on drug uptake in MCF-7 (square symbols), MCF-7TAX (diamond symbols) and MCF-7DOX (triangular symbols) cells. After one-day growth, the cells were left untreated (closed symbols) or treated with 100 nM calphostin C for 2 h with light activation (open symbols). Cells were then washed and the medium replaced with medium containing 2 μM of doxorubicin (A) or [^3H]-paclitaxel (B). The cells were then trypsinized and drug accumulation measured by flow cytometry (A) or liquid scintillation counting (B) at indicated time points. The figures are representative of three independent experiments.

[4] = test system: human 293T embryonic kidney cells; experiment: Death and cytoplasmic vacuolization, 293T; type: cell-based; conditions: data not shown
[5] = test system: mouse B16BL6 melanoma cells; experiment: Death and cytoplasmic vacuolization, B16BL6; type: cell-based; conditions: data not shown

Compound: COc1c(C[C@@H](C)OC(=O)Oc2ccc(O)cc2)c2c3c(C[C@@H](C)OC(=O)c4ccccc4)c(OC)c(=O)c4c(O)cc(OC)c(c5c(OC)cc(O)c(c1=O)c52)c43 [calphostin C]
- concentration required for complete cytoplasmic shrinkage (MCF-7 cells [1]): 300 nM
- percentage of cells exhibiting cytoplasmic shrinkage (MCF-7 cells [1]; 25 nM calphostin C, 2 h light, 24 h): 20%
- percentage of cells exhibiting cytoplasmic shrinkage (MCF-7 cells [1]; 50 nM calphostin C): 35%
- percentage of cells showing cytoplasmic vacuoles (MCF-7 cells [2]): Over 50%
- time of strong increase in percentage of sub-G1 cells after treatment (MCF-7 cells [3]): 8 h
- effect on doxorubicin uptake (MCF-7TAX cells; 100 nM calphostin C 2 h with light, then 2 μM doxorubicin): little ability to re-establish doxorubicin uptake
- effect on paclitaxel uptake (MCF-7TAX cells; 100 nM calphostin C, early time points, back to control by 18 hours): slightly restored
- induction of death and cytoplasmic vacuolization [4]: induce both death and cytoplasmic vacuolization
- induction of death and cytoplasmic vacuolization [5]: induce both death and cytoplasmic vacuolization
